Values quoted from earlier work, collected in US7589137B2, “Resin composition and molded product obtained therefrom” (Sony Corporation, priority 2005, dated 2009).

Conditions: safety to a living body

Row | Structure (SMILES) | LD50
1 | Cc1cc(O)nc(O)n1 [6-methyluracil] | 64500 mg/kg
2 | O=c1cc[nH]c(=O)[nH]1 [Uracil, uracil] | several
